From article PMC9137581, “Identification of a Novel Class of Anti-Melanogenic Compounds, (Z)-5-(Substituted benzylidene)-3-phenyl-2-thioxothiazolidin-4-one Derivatives, and Their Reactive Oxygen Species Scavenging Activities” (Antioxidants, 2022)

What was measured:
B16F10 cells = experiment: Melanin content assay in α-MSH plus IBMX-stimulated cells; assay type: cell-based, murine; settings: for reduction of α-MSH plus IBMX-induced increase in melanin content: 48 h, B16F10 cells; for effect on melanin content compared with kojic acid: analog at 5 µM
Protocol: Briefly, B16F10 cells were seeded at a density of 1 × 10^5 cells per well in 6-well plates and allowed to adhere to the well bases under the same conditions that were used for cell culturing. […] In order to determine the melanin contents, the B16F10 cells that were exposed to α-MSH and IBMX for 48 h were rinsed with PBS twice and incubated in 200 µL of 1 N NaOH solution containing 10% dimethyl sulfoxide (DMSO) for 1 h at 60 °C. The cell lysates were transferred to a 96-well plate and the absorbances at 405 nm were measured using a microplate reader (VersaMax™, Molecular Devices, Sunnyvale, CA, USA). These experiments were performed individually in triplicate. B16F10 cells were seeded in 6-well culture plates and pretreated with analogs 1, 3, and 6 at concentrations of 0, 5, 10, or 20 µM and with analog 2 at 0, 2.5, 5, or 10 µM for 1 h. α-Melanocyte-stimulating hormone (α-MSH; 1 µM) and 3-isobutyl-1-methylxanthine (IBMX; 200 µM) were added sequentially in order to enhance melanin production. After incubation for 48 h at 37 °C, the melanin contents were assessed by measuring the well optical densities at 405 nm using a microplate reader. Kojic acid (10 or 20 µM) was used as a positive control.

[1] = molecular target: T1, cellular tyrosinase in B16F10 cells (Mus musculus, UniProt P11344); experiment: Cellular tyrosinase activity (L-DOPA oxidation in lysates); assay type: cell-based, murine; settings: for inhibition of α-MSH plus IBMX-induced cellular tyrosinase activity compared with kojic acid: analog at 20 µM
T1 construct: endogenous in cells; host or cells: B16F10 murine melanoma cells (ATCC), stimulated with α-MSH and IBMX
T1 sequence (P11344 19-533): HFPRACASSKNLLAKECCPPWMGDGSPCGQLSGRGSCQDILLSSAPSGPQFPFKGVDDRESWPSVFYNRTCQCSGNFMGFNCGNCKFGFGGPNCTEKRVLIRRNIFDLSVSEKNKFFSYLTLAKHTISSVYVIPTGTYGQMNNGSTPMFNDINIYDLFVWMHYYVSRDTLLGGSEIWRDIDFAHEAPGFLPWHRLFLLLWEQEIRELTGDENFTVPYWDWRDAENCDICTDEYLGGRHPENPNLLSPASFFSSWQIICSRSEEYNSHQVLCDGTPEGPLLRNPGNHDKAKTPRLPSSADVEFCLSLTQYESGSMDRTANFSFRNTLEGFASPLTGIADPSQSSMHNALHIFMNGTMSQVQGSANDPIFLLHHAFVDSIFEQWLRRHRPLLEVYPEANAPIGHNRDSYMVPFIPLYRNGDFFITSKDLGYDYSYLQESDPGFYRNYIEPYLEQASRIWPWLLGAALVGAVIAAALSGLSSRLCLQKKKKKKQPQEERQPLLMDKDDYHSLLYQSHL
Protocol: The cellular tyrosinase activity was examined by assessing the oxidation rate of L-DOPA, as was previously described, with a slight modification. In brief, B16F10 cells were seeded at a density of 1 × 10^5 cells/well in a 6-well plate and allowed to adhere to the well bases using the same conditions that were used for cell culturing. […] After incubation for 48 h under the same conditions that were used for cell culturing, the cells were rinsed twice with PBS and then exposed to 100 µL of a lysis buffer solution (90 µL of 50 mM phosphate buffer in pH 6.5, 5 µL of 2 mM PMSF, and 5 µL of 20% Triton X-100) and held for 30 min at −80 °C. After defrosting, the cell lysates were centrifuged at 12,000 rpm for 30 min at 4 °C. Then, 10 mM L-DOPA (20 µL) was mixed with the supernatants (80 µL) of the lysates in a 96-well plate. The absorbances of these mixtures were measured at 492 nm every 10 min for 1 h at 37 °C using a microplate reader (VersaMax™, Molecular Devices, Sunnyvale, CA, USA). All of these experiments were conducted individually in triplicate. […] Briefly, B16F10 cells were seeded in 6-well culture plates and pretreated with four different concentrations (0, 5, 10, or 20 µM) of each of the four analogs for 1 h, and then the cells were co-stimulated with α-MSH and IBMX for 48 h at 37 °C so as to increase their cellular tyrosinase activity. Their optical densities (ODs) were then measured using a microplate reader at 492 nm in order to quantify the dopachrome production. The inhibitory effect of each analog on cellular tyrosinase activity was evaluated using these ODs. Kojic acid (20 µM) was used as a positive control.

[2] = ABTS free radical scavenging activity assay; settings: 100 µM, 2 min in the dark
Protocol: ABTS free radical scavenging activity was used to evaluate the antioxidant activities of analogs 1–13, as previously described. […] This ABTS free radical solution was then diluted with absolute methanol to an absorbance of 0.70 ± 0.02 at 734 nm. Aliquots (10 µL) of the test samples (10% DMSO + 90% EtOH) were added at a final concentration of 100 µM to 90 µL of the diluted ABTS free radical solution and incubated for 2 min in the dark at room temperature. Absorbances were then measured at 734 nm using a VersaMax™ microplate reader (Molecular Devices, Sunnyvale, CA, USA). The ABTS free radical scavenging activities of the test analogs were calculated using the following formula:Scavenging activity (%) = (Ac − As) × 100/Ac where Ac is the optical density of the non-treated control and As is the optical density of the tested material.
The effects of analogs 1–13 on ABTS (2,2′-azino-bis(3-ethylbenzothiazoline-6-sulfonic acid)) free radical scavenging activity were investigated using trolox as a positive reference control. The concentrations of the analogs and trolox in the test samples were 100 µM. The free radical scavenging activities were assessed by measuring the optical densities at 734 nm after standing in the dark for 2 min. […] Analogs 7–10, with no hydroxyl groups on the β-phenyl ring, had weak ABTS and DPPH radical scavenging activities.

[3] = Calculated log p (ChemDraw Ultra 12.0); settings: from calculated log p 3.16 vs. –2.45
Excerpt: In order to determine how well the (Z)-BPTT analogs are absorbed by skin, their log p (partition coefficient) values were examined using ChemDraw Ultra Ver. 12.0.

SMILES | reduction of α-MSH plus IBMX-induced increase in melanin content (B16F10 cells; 20 µM) | effect on melanin content compared with kojic acid (B16F10 cells) | inhibition of α-MSH plus IBMX-induced cellular tyrosinase activity compared with kojic acid [1] | ABTS free radical scavenging activity (in words) [2] | partition coefficient relative to kojic acid [3] | melanin suppression relative to kojic acid at 10 µM (B16F10 cells; 10 µM) | reduction of α-MSH plus IBMX-induced increase in melanin content (B16F10 cells; 10 µM) | suppression of α-MSH plus IBMX-induced melanogenesis compared with kojic acid (B16F10 cells; analog at 2.5 µM) | cellular tyrosinase activity as percentage of non-treated control ([1]; 10 µM, α-MSH plus IBMX co-stimulated) | inhibition of cellular tyrosinase activity compared with kojic acid ([1]; analog at 5 µM) | ABTS free radical scavenging activity [2]
O=C1/C(=C/c2ccc(O)cc2)SC(=S)N1c1ccccc1 [Analog 1, (Z)-5-(4-Hydroxybenzylidene)-3-phenyl-2-thioxothiazolidin-4-one] | 56.3% | as effective as kojic acid at 20 µM | more than kojic acid at 20 µM | weak | – | – | – | – | – | – | –
O=C1/C(=C/c2ccc(O)c(O)c2)SC(=S)N1c1ccccc1 [Analog 2, (Z)-5-(3,4-Dihydroxybenzylidene)-3-phenyl-2-thioxothiazolidin-4-one] | – | – | – | – | 10^5 fold | 4.1 fold | 89.6% | as effectively as kojic acid at 10 µM | < 100% | significantly inhibited tyrosinase activity more than kojic acid did at 20 µM | 96.9%
O=C1/C(=C/c2ccc(O)cc2O)SC(=S)N1c1ccccc1 [Analog 3, (Z)-5-(2,4-Dihydroxybenzylidene)-3-phenyl-2-thioxothiazolidin-4-one] | 61.3% | as effective as kojic acid at 20 µM | more than kojic acid at 20 µM | – | 10^5 fold | – | – | – | – | – | 82.0%
COc1ccc(/C=C2\SC(=S)N(c3ccccc3)C2=O)cc1O [Analog 6, (Z)-5-(3-Hydroxy-4-methoxybenzylidene)-3-phenyl-2-thioxothiazolidin-4-one] | 50.9% | as effective as kojic acid at 20 µM | more than kojic acid at 20 µM | – | – | – | – | – | – | – | –
